Drawing on patent US12440484B2, “1,3,4-oxadiazole homophthalimide derivative compounds as histone deacetylase 6 inhibitor, and the pharmaceutical composition comprising the same” (Chong Kun Dang Pharmaceutical Corp., priority 2019, dated 2025), this text covers IC50 for 18 compounds.

Some results are limits rather than exact numbers.

For one assay, the target named is HDAC6 human recombinant (Homo sapiens (Human), UniProt Q9UBN7). Nature of the assay: HDAC enzyme activity inhibition (in vitro), HDAC6 assay. The note with it: samples at 0.1, 1, 10, 100 and 1000 nM; 37° C. 60 minutes; fluorescence Ex 390, Em 460. The class given is biochemical.
Chain of HDAC6 human recombinant (Q9UBN7 whole entry): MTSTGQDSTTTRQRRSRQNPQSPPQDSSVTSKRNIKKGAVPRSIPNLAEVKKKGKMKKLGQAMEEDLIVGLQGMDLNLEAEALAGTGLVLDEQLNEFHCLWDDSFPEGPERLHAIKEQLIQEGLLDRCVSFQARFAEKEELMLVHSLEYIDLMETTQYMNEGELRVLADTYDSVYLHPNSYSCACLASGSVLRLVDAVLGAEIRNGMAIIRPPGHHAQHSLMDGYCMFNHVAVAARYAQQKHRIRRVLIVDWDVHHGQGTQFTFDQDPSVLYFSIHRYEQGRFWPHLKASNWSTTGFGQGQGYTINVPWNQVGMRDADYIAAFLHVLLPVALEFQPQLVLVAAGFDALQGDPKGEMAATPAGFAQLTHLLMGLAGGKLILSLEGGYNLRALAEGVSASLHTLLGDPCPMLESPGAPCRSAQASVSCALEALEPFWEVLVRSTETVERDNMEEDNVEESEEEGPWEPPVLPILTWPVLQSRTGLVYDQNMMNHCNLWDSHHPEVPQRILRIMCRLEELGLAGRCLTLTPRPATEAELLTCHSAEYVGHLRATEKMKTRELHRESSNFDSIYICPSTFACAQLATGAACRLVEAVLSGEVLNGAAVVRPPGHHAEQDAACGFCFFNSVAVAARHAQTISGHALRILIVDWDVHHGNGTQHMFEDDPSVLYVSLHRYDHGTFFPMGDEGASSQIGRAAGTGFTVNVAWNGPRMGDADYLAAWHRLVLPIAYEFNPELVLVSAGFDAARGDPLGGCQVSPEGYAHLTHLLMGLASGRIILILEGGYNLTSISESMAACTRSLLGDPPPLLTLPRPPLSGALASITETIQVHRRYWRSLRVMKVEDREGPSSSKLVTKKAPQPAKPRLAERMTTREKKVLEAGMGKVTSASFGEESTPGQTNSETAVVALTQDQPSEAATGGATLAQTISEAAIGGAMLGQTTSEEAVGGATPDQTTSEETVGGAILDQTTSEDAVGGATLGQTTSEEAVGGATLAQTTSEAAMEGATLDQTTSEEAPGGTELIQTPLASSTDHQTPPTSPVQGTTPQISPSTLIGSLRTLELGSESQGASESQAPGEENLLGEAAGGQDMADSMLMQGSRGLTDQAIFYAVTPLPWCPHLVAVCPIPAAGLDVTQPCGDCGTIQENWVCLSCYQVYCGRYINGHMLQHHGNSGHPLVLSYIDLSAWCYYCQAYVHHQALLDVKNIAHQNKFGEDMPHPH
In another assay the target is HDAC1 (Homo sapiens (Human), UniProt Q13547). Briefly: HDAC enzyme activity inhibition (in vitro), HDAC1 Fluorimetric Drug Discovery Assay Kit. The format is biochemical. The note with it: samples at 100, 1000 and 10000 nM; 37° C. 60 minutes; fluorescence Ex 390, Em 460.
Chain of HDAC1 (Q13547 whole entry): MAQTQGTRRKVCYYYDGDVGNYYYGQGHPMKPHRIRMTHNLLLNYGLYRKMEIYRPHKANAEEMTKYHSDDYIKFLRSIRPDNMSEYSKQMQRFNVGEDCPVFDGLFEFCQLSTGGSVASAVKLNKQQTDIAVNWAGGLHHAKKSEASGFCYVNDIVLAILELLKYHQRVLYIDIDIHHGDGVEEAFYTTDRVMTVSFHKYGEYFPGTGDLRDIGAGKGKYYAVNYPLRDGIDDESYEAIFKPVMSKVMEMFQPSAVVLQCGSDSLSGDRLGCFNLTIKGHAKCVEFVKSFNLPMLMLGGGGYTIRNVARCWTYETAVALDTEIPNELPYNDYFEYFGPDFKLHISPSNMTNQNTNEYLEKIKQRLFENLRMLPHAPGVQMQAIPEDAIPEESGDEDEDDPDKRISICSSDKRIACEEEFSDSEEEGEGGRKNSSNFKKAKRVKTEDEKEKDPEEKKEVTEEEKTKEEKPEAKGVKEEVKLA

As a reminder, the IC50 is the concentration that inhibits the measured activity by half. On to `O=c1[nH]c2ccccc2c(=O)n1Cc1ccc(-c2nnc(C(F)F)o2)cn1` [Compound 14, 3-((5-(5-(difluoromethyl)-1,3,4-oxadiazole-2-yl)pyridine-2-yl)methyl)quinazoline-2,4(1H,3H)-dione], for which the IC50 is 53 nM on HDAC6 human recombinant and above 10 µM against HDAC1.
For `CC1(C)C(=O)N(Cc2ccc(-c3nnc(C(F)F)o3)cn2)C(=O)c2ccc(-c3ccccc3F)cc21` [Compound 103, 2-((5-(5-(difluoromethyl)-1,3,4-oxadiazole-2-yl)pyridine-2-yl)methyl)-6-(2-fluorophenyl)-4,4-dimethylisoquinoline-1,3(2H,4H)-dione], in that order: 59 nM and above 10 µM.
In the same order, the values of `O=C1c2ccccc2C(=O)N1Cc1ccc(-c2nnc(C(F)F)o2)cn1` [Compound 1, 2-((5-(5-(difluoromethyl)-1,3,4-oxadiazole-2-yl)pyridine-2-yl)methyl)isoindoline-1,3-dione] are 57 nM and above 10 µM.
As to `CC1(C)C(=O)N(Cc2ccc(-c3nnc(C(F)F)o3)cn2)C(=O)c2cc(N3CCOCC3)ccc21` [Compound 52, 2-((5-(5-(difluoromethyl)-1,3,4-oxadiazole-2-yl)pyridine-2-yl)methyl)-4,4-dimethyl-7-morpholinoisoquinoline-1,3(2H,4H)-dione], the results for the IC50 at HDAC6 human recombinant and against HDAC1 were 40 nM and above 10 µM, respectively.
Regarding `CC(C)CCN1CCN(c2ccc3c(c2)C(=O)N(Cc2ccc(-c4nnc(C(F)F)o4)cn2)C(=O)C3(C)C)CC1` [Compound 132, 2-((5-(5-(difluoromethyl)-1,3,4-oxadiazole-2-yl)pyridine-2-yl)methyl)-7-(4-isopentylpiperazine-1-yl)-4,4-dimethylisoquinoline-1,3(2H,4H)-dione], the IC50 at HDAC6 human recombinant was 69 nM; against HDAC1 it was above 10 µM.
Take `CC1(C)C(=O)N(Cc2ccc(-c3nnc(C(F)F)o3)cn2)C(=O)c2cc(C3=CCS(=O)(=NC(=O)C(F)(F)F)CC3)ccc21` (stereo not drawn) [Compound 125, N-(4-(2-((5-(5-(difluoromethyl)-1,3,4-oxadiazole-2-yl)pyridine-2-yl)methyl)-4,4-dimethyl-1,3-dioxo-1,2,3,4-tetrahydroisoquinoline-7-yl)-1-oxydo-3,6-dihydro-2H-1λ^6-thiopyran-1-ylidene)-2,2,2-trifluoroacetamide]: the values for the IC50 on HDAC6 human recombinant and at HDAC1 were 43 nM and above 10 µM, respectively.
In the case of `O=c1c2cc(F)ccc2n(CCN2CCCCC2)c(=O)n1Cc1ccc(-c2nnc(C(F)F)o2)cn1` [Compound 71, 3-((5-(5-(difluoromethyl)-1,3,4-oxadiazole-2-yl)pyridine-2-yl)methyl)-6-fluoro-1-(2-(piperidine-1-yl)ethyl)quinazoline-2,4(1H,3H)-dione], the figures for the IC50 on HDAC6 human recombinant and on HDAC1 were 150 nM and above 10 µM, respectively.
In the same order, the values of `CC1(C)C(=O)N(Cc2ccc(-c3nnc(C(F)F)o3)cc2F)C(=O)c2ccccc21` [Compound 7, 2-(4-(5-(difluoromethyl)-1,3,4-oxadiazole-2-yl)-2-fluorobenzyl)-4,4-dimethylisoquinoline-1,3(2H,4H)-dione] are 145 nM and above 10 µM.
In the same order, the values of `CC(C)(C)OC(=O)N1CCN(c2ccc3c(c2)C(=O)N(Cc2ccc(-c4nnc(C(F)F)o4)cn2)C(=O)C3(C)C)CC1` [Compound 116, tert-butyl 4-(2-((5-(5-(difluoromethyl)-1,3,4-oxadiazole-2-yl)pyridine-2-yl)methyl)-4,4-dimethyl-1,3-dioxo-1,2,3,4-tetrahydroisoquinoline-7-yl)piperazine-1-carboxylate] are 200 nM and above 10 µM.
For `Cn1c(=O)n(Cc2ccc(-c3nnc(C(F)F)o3)cn2)c(=O)c2ccc(-c3ccco3)cc21` [Compound 98, 3-((5-(5-(difluoromethyl)-1,3,4-oxadiazole-2-yl)pyridine-2-yl)methyl)-7-(furan-2-yl)-1-methylquinazoline-2,4(1H,3H)-dione], in that order: 47 nM and above 10 µM.
On to `CN(C)[C@H]1CCN(c2ccc3c(c2)C(C)(C)C(=O)N(Cc2ccc(-c4nnc(C(F)F)o4)cn2)C3=O)C1` [Compound 31, (S)-2-((5-(5-(difluoromethyl)-1,3,4-oxadiazole-2-yl)pyridine-2-yl)methyl)-6-(3-(dimethylamino)pyrrolidine-1-yl)-4,4-dimethylisoquinoline-1,3(2H,4H)-dione], for which the IC50 at HDAC6 human recombinant is 29 nM; against HDAC1, above 10 µM.
As to `Cn1c(=O)n(Cc2ccc(-c3nnc(C(F)F)o3)cn2)c(=O)c2ccc(C3=CCNCC3)cc21` [Compound 122, 3-((5-(5-(difluoromethyl)-1,3,4-oxadiazole-2-yl)pyridine-2-yl)methyl)-1-methyl-7-(1,2,3,6-tetrahydropyridine-4-yl)quinazoline-2,4(1H,3H)-dione], the IC50 at HDAC6 human recombinant was 23 nM; against HDAC1, above 10 µM.
For `CN(C)C1CCN(c2ccc3c(c2)C(C)(C)C(=O)N(Cc2ccc(-c4nnc(C(F)F)o4)cn2)C3=O)CC1` [Compound 37, 2-((5-(5-(difluoromethyl)-1,3,4-oxadiazole-2-yl)pyridine-2-yl)methyl)-6-(4-(dimethylamino)piperidine-1-yl)-4,4-dimethylisoquinoline-1,3(2H,4H)-dione], the half-inhibitory concentration (IC50) was 15 nM on HDAC6 human recombinant and above 10 µM at HDAC1.
In the same order, the values of `O=C1c2ccccc2C2(CCC2)C(=O)N1Cc1ccc(-c2nnc(C(F)F)o2)cn1` [Compound 4, 2′-((5-(5-(difluoromethyl)-1,3,4-oxadiazole-2-yl)pyridine-2-yl)methyl)-1′H-spiro[cyclobutane-1,4′-isoquinoline]-1′,3′(2′H)-dione] are 32 nM and above 10 µM.
For `CC1(C)C(=O)N(Cc2ccc(-c3nnc(C(F)F)o3)cn2)C(=O)c2ccc(N3CC(F)(F)C3)cc21` [Compound 49, 6-(3,3-difluoroazetidine-1-yl)-2-((5-(5-(difluoromethyl)-1,3,4-oxadiazole-2-yl)pyridine-2-yl)methyl)-4,4-dimethylisoquinoline-1,3(2H,4H)-dione], in that order: 41 nM and above 10 µM.
For `CC1(C)C(=O)N(Cc2ccc(-c3nnc(C(F)F)o3)cn2)C(=O)c2cc(N3CCN(CC(F)(F)F)CC3)ccc21` [Compound 133, 2-((5-(5-(difluoromethyl)-1,3,4-oxadiazole-2-yl)pyridine-2-yl)methyl)-4,4-dimethyl-7-(4-(2,2,2-trifluoroethyl)piperazine-1-yl)isoquinoline-1,3(2H,4H)-dione], in that order: 76 nM and above 10 µM.
For `CCCCN1CCN(c2ccc3c(c2)C(C)(C)C(=O)N(Cc2ccc(-c4nnc(C(F)F)o4)cn2)C3=O)CC1` [Compound 147, 6-(4-butylpiperazine-1-yl)-2-((5-(5-(difluoromethyl)-1,3,4-oxadiazole-2-yl)pyridine-2-yl)methyl)-4,4-dimethylisoquinoline-1,3(2H,4H)-dione], the results for the IC50 at HDAC6 human recombinant and against HDAC1 were 69 nM and above 10 µM, respectively.
In the same order, the values of `CC1(C)C(=O)N(Cc2ccc(-c3nnc(C(F)F)o3)cn2)C(=O)c2ccccc21` [Compound 8, 2-((5-(5-(difluoromethyl)-1,3,4-oxadiazole-2-yl)pyridine-2-yl)methyl)-4,4-dimethylisoquinoline-1,3(2H,4H)-dione] are 30 nM and above 10 µM.
